Measurements from PubChem BioAssay (NCI).
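Five compound concentrations were applied to cells in 96-well plates for 48 hours; endpoints were derived by simple linear interpolation of the resulting dose-response curve. Definition used: TGI = concentration required for complete inhibition of growth.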

Legend:
Test in all cases: DTP human tumour cell line panel, 48 h
SN12C renal = tested on: SN12C renal
SK-OV-3 ovarian = tested on: SK-OV-3 ovarian
HT29 colon = tested on: HT29 colon
SK-MEL-5 melanoma = tested on: SK-MEL-5 melanoma
A498 renal = tested on: A498 renal
NCI/ADR-RES ovarian = tested on: NCI/ADR-RES ovarian
NCI-H460 lung = tested on: NCI-H460 lung
BT-549 breast = tested on: BT-549 breast
MDA-MB-231 breast = tested on: MDA-MB-231 breast
MDA-MB-435 = tested on: MDA-MB-435
NCI-H23 lung = tested on: NCI-H23 lung
OVCAR-8 ovarian = tested on: OVCAR-8 ovarian
HS 578T breast = tested on: HS 578T breast
SF-539 CNS = tested on: SF-539 CNS
SNB-19 CNS = tested on: SNB-19 CNS
M14 melanoma = tested on: M14 melanoma
ACHN renal = tested on: ACHN renal
HCT-116 colon = tested on: HCT-116 colon
MCF7 breast = tested on: MCF7 breast
U251 CNS = tested on: U251 CNS
UACC-62 melanoma = tested on: UACC-62 melanoma
DU-145 prostate = tested on: DU-145 prostate
EKVX NSCLC = tested on: EKVX NSCLC
MOLT-4 leukemia = tested on: MOLT-4 leukemia
UACC-257 melanoma = tested on: UACC-257 melanoma
SNB-75 CNS = tested on: SNB-75 CNS
HL-60(TB) leukemia = tested on: HL-60(TB) leukemia
NCI-H226 lung = tested on: NCI-H226 lung
SR leukemia = tested on: SR leukemia
OVCAR-4 ovarian = tested on: OVCAR-4 ovarian
LOX IMVI melanoma = tested on: LOX IMVI melanoma
CAKI-1 renal = tested on: CAKI-1 renal
T-47D breast = tested on: T-47D breast
OVCAR-3 ovarian = tested on: OVCAR-3 ovarian
HCT-15 colon = tested on: HCT-15 colon
RXF 393 renal = tested on: RXF 393 renal
SK-MEL-2 melanoma = tested on: SK-MEL-2 melanoma
MDA-N = tested on: MDA-N
NCI-H522 lung = tested on: NCI-H522 lung
HOP-62 NSCLC = tested on: HOP-62 NSCLC
MALME-3M melanoma = tested on: MALME-3M melanoma
SW-620 colon = tested on: SW-620 colon
SK-MEL-28 melanoma = tested on: SK-MEL-28 melanoma
COLO 205 colon = tested on: COLO 205 colon
SF-268 CNS = tested on: SF-268 CNS
786-0 renal = tested on: 786-0 renal
KM12 colon = tested on: KM12 colon
OVCAR-5 ovarian = tested on: OVCAR-5 ovarian
RPMI-8226 leukemia = tested on: RPMI-8226 leukemia
HOP-92 NSCLC = tested on: HOP-92 NSCLC
A549 NSCLC = tested on: A549 NSCLC
UO-31 renal = tested on: UO-31 renal
TK-10 renal = tested on: TK-10 renal
IGROV1 ovarian = tested on: IGROV1 ovarian
PC-3 prostate = tested on: PC-3 prostate
SF-295 CNS = tested on: SF-295 CNS
HCC-2998 colon = tested on: HCC-2998 colon
K-562 leukemia = tested on: K-562 leukemia
CCRF-CEM leukemia = tested on: CCRF-CEM leukemia

In the case of COc1ccc(N=Nc2ccc3oc(=O)c(C(=O)Nc4ccccc4)cc3c2)cc1, the TGI (SN12C renal) is reported as > 10 µM, the TGI (SK-OV-3 ovarian) is reported as > 10 µM and the TGI (HT29 colon) is reported as > 10 µM. The TGI (SK-MEL-5 melanoma) was > 10 µM, the TGI (A498 renal) was > 10 µM and the TGI (NCI/ADR-RES ovarian) was > 10 µM. For the same compound, the TGI (NCI-H460 lung) was > 10 µM, the TGI (BT-549 breast) was > 10 µM and the TGI (MDA-MB-231 breast) was > 10 µM. The TGI (MDA-MB-435) was > 10 µM, the TGI (NCI-H23 lung) was > 10 µM and the TGI (OVCAR-8 ovarian) was > 10 µM. For the same compound, the TGI (HS 578T breast) was > 10 µM, the TGI (SF-539 CNS) was > 10 µM and the TGI (SNB-19 CNS) was > 10 µM. For the same compound, the TGI (M14 melanoma) was > 10 µM, the TGI (ACHN renal) was > 10 µM and the TGI (HCT-116 colon) was > 10 µM. For the same compound, the TGI (MCF7 breast) was > 10 µM, the TGI (U251 CNS) was > 10 µM and the TGI (UACC-62 melanoma) was > 10 µM. For the same compound, the TGI (DU-145 prostate) was > 10 µM, the TGI (EKVX NSCLC) was > 10 µM and the TGI (MOLT-4 leukemia) was > 10 µM. For the same compound, the TGI (UACC-257 melanoma) was > 10 µM, the TGI (SNB-75 CNS) was > 10 µM and the TGI (HL-60(TB) leukemia) was > 10 µM. The TGI (NCI-H226 lung) was > 10 µM, the TGI (SR leukemia) was > 10 µM and the TGI (OVCAR-4 ovarian) was > 10 µM. The TGI (LOX IMVI melanoma) was > 10 µM, the TGI (CAKI-1 renal) was > 10 µM and the TGI (T-47D breast) was > 10 µM. For the same compound, the TGI (OVCAR-3 ovarian) was > 10 µM, the TGI (HCT-15 colon) was > 10 µM and the TGI (RXF 393 renal) was > 10 µM. For the same compound, the TGI (SK-MEL-2 melanoma) was > 10 µM, the TGI (MDA-N) was > 10 µM and the TGI (NCI-H522 lung) was > 10 µM. The TGI (HOP-62 NSCLC) was > 10 µM, the TGI (MALME-3M melanoma) was > 10 µM and the TGI (SW-620 colon) was > 10 µM. The TGI (SK-MEL-28 melanoma) was > 10 µM, the TGI (COLO 205 colon) was > 10 µM and the TGI (SF-268 CNS) was > 10 µM. For the same compound, the TGI (786-0 renal) was > 10 µM, the TGI (KM12 colon) was > 10 µM and the TGI (OVCAR-5 ovarian) was > 10 µM. The TGI (RPMI-8226 leukemia) was > 10 µM, the TGI (HOP-92 NSCLC) was > 10 µM and the TGI (A549 NSCLC) was > 10 µM. For the same compound, the TGI (UO-31 renal) was > 10 µM, the TGI (TK-10 renal) was > 10 µM and the TGI (IGROV1 ovarian) was > 10 µM. The TGI (PC-3 prostate) was > 10 µM, the TGI (SF-295 CNS) was > 10 µM and the TGI (HCC-2998 colon) was > 10 µM.
In the case of c1ccc(-c2cs[s+]c2)cc1, the TGI (SN12C renal) is reported as > 100 µM, the TGI (SK-OV-3 ovarian) is reported as > 100 µM and the TGI (HT29 colon) is reported as > 100 µM. For the same compound, the TGI (SK-MEL-5 melanoma) was > 100 µM, the TGI (A498 renal) was > 100 µM and the TGI (NCI/ADR-RES ovarian) was > 100 µM. For the same compound, the TGI (NCI-H460 lung) was > 100 µM, the TGI (BT-549 breast) was > 100 µM and the TGI (MDA-MB-231 breast) was > 100 µM. The TGI (MDA-MB-435) was > 100 µM, the TGI (NCI-H23 lung) was > 100 µM and the TGI (OVCAR-8 ovarian) was > 100 µM. For the same compound, the TGI (HS 578T breast) was > 100 µM, the TGI (SNB-19 CNS) was > 100 µM and the TGI (M14 melanoma) was > 100 µM. For the same compound, the TGI (ACHN renal) was > 100 µM, the TGI (K-562 leukemia) was > 100 µM and the TGI (HCT-116 colon) was > 100 µM. For the same compound, the TGI (MCF7 breast) was > 100 µM, the TGI (U251 CNS) was > 100 µM and the TGI (UACC-62 melanoma) was > 100 µM. The TGI (DU-145 prostate) was > 100 µM, the TGI (EKVX NSCLC) was > 100 µM and the TGI (MOLT-4 leukemia) was 85.6 µM. For the same compound, the TGI (UACC-257 melanoma) was > 100 µM, the TGI (SNB-75 CNS) was > 100 µM and the TGI (HL-60(TB) leukemia) was > 100 µM. The TGI (NCI-H226 lung) was > 100 µM, the TGI (SR leukemia) was > 100 µM and the TGI (OVCAR-4 ovarian) was > 100 µM. For the same compound, the TGI (LOX IMVI melanoma) was > 100 µM, the TGI (CAKI-1 renal) was > 100 µM and the TGI (T-47D breast) was > 100 µM. For the same compound, the TGI (OVCAR-3 ovarian) was > 100 µM, the TGI (HCT-15 colon) was > 100 µM and the TGI (RXF 393 renal) was > 100 µM. For the same compound, the TGI (MDA-N) was > 100 µM, the TGI (NCI-H522 lung) was > 100 µM and the TGI (HOP-62 NSCLC) was > 100 µM. For the same compound, the TGI (MALME-3M melanoma) was > 100 µM, the TGI (SW-620 colon) was > 100 µM and the TGI (SK-MEL-28 melanoma) was > 100 µM. The TGI (COLO 205 colon) was > 100 µM, the TGI (SF-268 CNS) was > 100 µM and the TGI (786-0 renal) was > 100 µM. The TGI (KM12 colon) was > 100 µM, the TGI (OVCAR-5 ovarian) was > 100 µM and the TGI (HOP-92 NSCLC) was > 100 µM. For the same compound, the TGI (A549 NSCLC) was > 100 µM, the TGI (UO-31 renal) was > 100 µM and the TGI (TK-10 renal) was > 100 µM. The TGI (IGROV1 ovarian) was > 100 µM, the TGI (CCRF-CEM leukemia) was 83.1 µM and the TGI (PC-3 prostate) was > 100 µM. The TGI (SF-295 CNS) was > 100 µM and the TGI (HCC-2998 colon) was > 100 µM.
